Source: BindingDB's records for doi:10.1021/jm00083a023 (Warner-Lambert, 1992)

Assay: Compound was evaluated for the inhibition of serum-opsonized zymosan stimulated myeloperoxidase release from human neutrophil

IC50: 7.5 µM
Compound: COc1ccc2sc(C(=O)Nc3nnn[nH]3)c(OC(C)C)c2c1
